Data reported in patent publication US20090075950A1, “Dosage Forms Containing A PPI, NSAID And A Buffer” (Takeda Pharmaceuticals North America, Inc., priority 2002, published 2009).

Experiments:
[1] = PPI/NSAID drug substance compatibility: storage of lansoprazole/NSAID mixtures with and without buffer; format: physicochemical
Description: Various NSAIDs were combined with lansoprazole with and without a buffer to determine the compatibility of the components. The various mixtures were placed at room temperature and 40° C. with 75% relative humidity. The samples were tested initially and after two weeks at the storage conditions above. The results are reported in Table 1 below as a percent of the theoretical amount of a given component.

[2] = Potency by HPLC and compatibility on storage of granulations and drug substances; format: physicochemical; settings: for Potency 2 Weeks Extreme Conditions, NSAID: 2 weeks at 40° C. with 75% to 85% relative humidity; for Potency 4 Weeks Extreme Conditions, NSAID: 4 weeks at 40° C. with 75% to 85% relative humidity; for Potency 19 Days RT, NSAID: 19 days at room temperature; for Potency 33 Days RT, NSAID: 33 days at room temperature
Description: In this example, granulations of a PPI and various NSAIDs were prepared to determine the compatibility of these substances with each other in a granulated form.
The potency (mg/g) of each drug substance in each granulation was determined by HPLC.
Granulations A, C, and D, as well as naproxen and piroxicam drag substances were weighed and separately placed in scintillation vials and stored at room temperature (RT) and at 40° C. with 75% to 85% relative humidity (“Extreme Conditions”). Granulations A, C, and D, as well as the naproxen and piroxicam, were tested for potency of the lansoprazole and NSAID after 19 and 33 days at the room temperature conditions and after two and four weeks under the Extreme Conditions.

Row | % of Theory, 40° C. 75% humidity, lanso ([1]; lansoprazole recovered after two weeks at 40° C. with 75% relative humidity) | % of Theory, Room Temp., lanso ([1]; lansoprazole recovered after two weeks at room temperature) | % of Theory, Initial, lanso ([1]; lansoprazole recovered, initial) | Potency 2 Weeks Extreme Conditions, NSAID [2] | Potency 4 Weeks Extreme Conditions, NSAID [2] | Potency 19 Days RT, NSAID [2] | Potency 33 Days RT, NSAID [2] | Structure (SMILES)
1 | 99.1/NA % | 99.1/NA % | 100.8/NA % |  |  |  |  | Cc1c(OCC(F)(F)F)ccnc1C[S+]([O-])c1nc2ccccc2[nH]1 (centres unmarked) [Lansoprazole, lansoprazole]
2 |  |  |  | NA/942.2 mg/g | NA/1005.5 mg/g | NA/1027.1 mg/g | NA/998.5 mg/g | CN1C(C(=O)Nc2ccccn2)=C(O)c2ccccc2S1(=O)=O [Piroxicam, piroxicam]
3 |  |  |  | NA/996.7 mg/g | NA/1000.9 mg/g | NA/997.2 mg/g | NA/998.2 mg/g | COc1ccc2cc([C@H](C)C(=O)O)ccc2c1 [Naproxen, naproxen]
